The values below come from US20240287052A1, “NOVEL OXAZOLE DERIVATIVE AND PHARMACEUTICAL COMPOSITION FOR PREVENTING OR TREATING ALLERGIC DISEASES COMPRISING THE SAME” (AZCURIS CO., LTD., priority 2021, published 2024).

Each structure is given as a SMILES string. Like-named read-outs stand apart in the source and are kept apart here.

The assay concerns the target T1, IL33 and ST2 binding (Homo sapiens, UniProt O95760).
T1 sequence (O95760 112-270 limits assumed): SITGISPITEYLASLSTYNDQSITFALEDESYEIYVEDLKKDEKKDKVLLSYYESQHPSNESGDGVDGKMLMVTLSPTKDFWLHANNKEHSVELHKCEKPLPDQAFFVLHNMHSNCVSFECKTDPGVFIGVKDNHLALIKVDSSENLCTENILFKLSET
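Note: plate ELISA with coated Flag-tagged human IL-33 and His-tagged human ST2, bound ST2 detected by anti-His HRP and TMB absorbance at 450 nm, 2 h compound incubation.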

For the compound `O=C(c1nc(-c2ccc(C(F)(F)F)cc2)oc1-c1ccccc1[N+](=O)[O-])N1CCN(CCN2CCCCC2)CC1` [Compound 151, (5-(2-Nitrophenyl)-2-(4-(trifluoromethyl)phenyl)oxazol-4-yl)(4-(2-(piperidin-1-yl)ethyl)piperazin-1-yl)methanone], the inhibition (30 µM) is -33% and the inhibition (100 µM) was -16%.
Taken in the same sequence, the figures for `O=C(c1nc(-c2ccc(C(F)(F)F)cc2)oc1-c1ccccc1[N+](=O)[O-])N1CCN(CCN2CCOCC2)CC1` [Compound 152, (4-(2-Morpholinoethyl)piperazin-1-yl)(5-(2-nitrophenyl)-2-(4-(trifluoromethyl)phenyl)oxazol-4-yl)methanone] were 36% and 48%.
As for `CCN(CC)CCN1CCN(C(=O)c2nc(-c3ccc(C(F)(F)F)cc3)oc2-c2ccccc2[N+](=O)[O-])CC1` [Compound 154, (4-(2-(Diethylamino)ethyl)piperazin-1-yl)(5-(2-nitrophenyl)-2-(4-(trifluoromethyl)phenyl)oxazol-4-yl)methanone], the inhibition reads like this: (30 µM) 0%; (100 µM) -25%.
Taken in the same sequence, the figures for `CN1CCN(C(=O)c2nc(-c3ccc(C(F)(F)F)cc3)oc2-c2ccccc2[N+](=O)[O-])CC1` [Compound 155, (4-Methylpiperazin-1-yl)(5-(2-nitrophenyl)-2-(4-(trifluoromethyl)phenyl)oxazol-4-yl)methanone] were -31% and -18%.
On the same counts, the results for `O=C(c1nc(-c2ccc(C(F)(F)F)cc2)oc1-c1ccccc1[N+](=O)[O-])N1CCOCC1` [Compound 156, Morpholino(5-(2-nitrophenyl)-2-(4-(trifluoromethyl)phenyl)oxazol-4-yl)methanone] are -1% and 41%.
As for `O=C(NCCCN1CCOCC1)c1nc(-c2ccc(C(F)(F)F)cc2)oc1-c1ccccc1[N+](=O)[O-]` [Compound 157, N-(3-Morpholinopropyl)-5-(2-nitrophenyl)-2-(4-(trifluoromethyl)phenyl)oxazole-4-carboxamide], the inhibition is, setting by setting: (30 µM) 22%; (100 µM) 15%.
As to `O=C(NCC1CCCO1)c1nc(-c2ccc(C(F)(F)F)cc2)oc1-c1ccccc1[N+](=O)[O-]` (stereo not shown) [Compound 159, 5-(2-Nitrophenyl)-N-((tetrahydrofuran-2-yl)methyl)-2-(4-(trifluoromethyl)phenyl)oxazole-4-carboxamide], the inhibition is 2% (30 µM) and -1% (100 µM).
For `COCCNC(=O)c1nc(-c2ccc(C(F)(F)F)cc2)oc1-c1ccccc1[N+](=O)[O-]` [Compound 160, N-(2-Methoxyethyl)-5-(2-nitrophenyl)-2-(4-(trifluoromethyl)phenyl)oxazole-4-carboxamide], the inhibition stood at 18% (30 µM) and 29% (100 µM).
For `O=C(c1nc(-c2ccc(C(F)(F)F)cc2)oc1-c1ccccc1[N+](=O)[O-])N1CCC(O)CC1` [Compound 161, (4-Hydroxypiperidin-1-yl)(5-(2-nitrophenyl)-2-(4-(trifluoromethyl)phenyl)oxazol-4-yl)methanone], the inhibition (30 µM) was -16% and the inhibition (100 µM) is -11%.
As for `O=C(c1ccc(N2CCCCC2)cc1)c1nc(-c2ccc(C(F)(F)F)cc2)oc1-c1ccccc1[N+](=O)[O-]` [Compound 162, (5-(2-Nitrophenyl)-2-(4-(trifluoromethyl)phenyl)oxazol-4-yl)(4-(piperidin-1-yl)phenyl)methanone], the inhibition (30 µM) was found to be 3% and the inhibition (100 µM) is 5%.
Taken in the same sequence, the figures for `CCOC(=O)N1CCN(C(=O)c2nc(-c3ccc(C(F)(F)F)cc3)oc2-c2ccccc2[N+](=O)[O-])CC1` [Compound 163, Ethyl 4-(5-(2-nitrophenyl)-2-(4-(trifluoromethyl)phenyl)oxazole-4-carbonyl)piperazine-1-carboxylate] were -30% and -19%.
